# Data taken from patent US8658570B2, “Use of anthranilamide derivatives for controlling insects and spider mites by drenching, soil mixing, furrow treatment, drip application, soil, stem or flower injection, in hydroponic systems, by planting hole treatment or dip application, floating or seedbox application or by treating seed, and …” (Bayer Cropscience AG, priority 2010, dated 2014).
# System: Spodoptera frugiperda
# Assay: Spodoptera frugiperda test on maize; drench application (Example B)
# Format: in vivo
# Conditions: soil, 168 h, 0.5 mg of ai/plant, mortality 7 days after infestation, read-out: % Activity (according to Abbott)
# Description: Spodoptera frugiperda Test on Maize; Drench Application
# (§1) • Solvent: 4 parts by weight of acetone • Emulsifier: 1 part by weight of alkylaryl polyglycol ether
# To produce a suitable preparation of active compound, 1 part by weight of active compound is mixed with the stated amounts of solvent and emulsifier, and the concentrate is diluted with water to the desired concentration. Maize plants (Zea mays) are watered with a solution of the product in question (volume of water: 50 ml/plant). The stated concentration refers to the amount of active compound per plant. After about 1 week, the treated plants are infested with the armyworm (Spodoptera frugiperda). After 1 week, the activity in % is determined. 100% means that all caterpillars have been killed; 0% means that none of the caterpillars have been killed.
row,SMILES,pest or weed control at 0.5 mg/plant [%]
1,CCNC(=O)c1cc(C#N)cc(C)c1NC(=O)c1cc(Cn2nnc(C(F)(F)F)n2)nn1-c1ncccc1Cl [(I-1-3)],100
2,CNC(=O)c1cc(F)cc(C)c1NC(=O)c1cc(Cn2nnc(C(F)(F)F)n2)nn1-c1ncccc1Cl [(I-1-61)],100
3,CNC(=O)c1cc(C#N)cc(C)c1NC(=O)c1cc(Cn2nnc(C(F)(F)F)n2)nn1-c1ncccc1Br [(I-1-62)],98
4,Cc1cc(C#N)cc(C(=O)NC(C)(C)C)c1NC(=O)c1cc(Cn2nnc(C(F)(F)F)n2)nn1-c1ncccc1Cl [(I-1-63)],100
5,CNC(=O)c1cc(Br)cc(C)c1NC(=O)c1cc(Cn2nnc(C(F)(F)F)n2)nn1-c1ncccc1Cl [(I-1-64)],100
6,Cc1cc(Br)cc(C(=O)NCC#N)c1NC(=O)c1cc(Cn2nnc(C(F)(F)F)n2)nn1-c1ncccc1Cl [(I-1-68)],100
7,CNC(=O)c1cc(I)cc(C)c1NC(=O)c1cc(Cn2nnc(C(F)(F)F)n2)nn1-c1ncccc1Cl [(I-1-69)],85
8,Cc1cc(C#N)cc(C(=O)NC(C)(C)C)c1NC(=O)c1cc(Cn2nnc(C3CC3)n2)nn1-c1ncccc1Cl [(I-1-71)],85

# Same assay, conditions: soil, 168 h, 1 mg of ai/plant, mortality 7 days after infestation, read-out: % Activity (according to Abbott)
row,SMILES,pest or weed control at 1 mg/plant [%]
1,Cc1cc(C#N)cc(C(=O)NC(C)(C)C)c1NC(=O)c1cc(Cn2nnc(C(F)(F)F)n2)nn1-c1ncccc1Br [(I-1-65)],95
2,CNC(=O)c1cc(C#N)cc(C)c1NC(=O)c1cc(Cn2nnc(C(F)(F)F)n2)nn1-c1c(F)cccc1Cl [(I-1-66)],95
3,Cc1cc(C#N)cc(C(=O)NC(C)C)c1NC(=O)c1cc(Cn2nnc(C(F)(F)F)n2)nn1-c1ncccc1Br [(I-1-67)],90
4,Cc1cc(C#N)cc(C(=O)NC(C)(C)C)c1NC(=O)c1cc(Cn2nnc(C(F)(F)F)n2)nn1-c1ncccc1F [(I-1-70)],90

# System: Heliothis armigera
# Assay: Heliothis armigera test on cotton; drench application
# Format: in vivo
# Conditions: Helicoverpa armigera, soil, 168 h, 0.5 mg of ai/plant, mortality 7 days after infestation, read-out: % Activity (according to Abbott)
# Description: Heliothis armigera Test on Cotton; Drench Application
# as §1
# (§2) To produce a suitable preparation of active compound, 1 part by weight of active compound is mixed with the stated amounts of solvent and emulsifier, and the concentrate is diluted with water to the desired concentration. Cotton plants (Gossypium hirsuium) are watered with a solution of the product in question (volume of water: 50 ml/plant). The stated concentration refers to the amount of active compound per plant. After about 1 week, the treated plants are infested with larvae of the cotton bollworm (Heliothis armigera). After 1 week, the activity in % is determined. 100% means that all caterpillars have been killed; 0% means that none of the caterpillars have been killed.
row,SMILES,pest or weed control at 0.5 mg/plant [%]
1,CCNC(=O)c1cc(C#N)cc(C)c1NC(=O)c1cc(Cn2nnc(C(F)(F)F)n2)nn1-c1ncccc1Cl [(I-1-3)],100
2,CNC(=O)c1cc(F)cc(C)c1NC(=O)c1cc(Cn2nnc(C(F)(F)F)n2)nn1-c1ncccc1Cl [(I-1-61)],100
3,CNC(=O)c1cc(C#N)cc(C)c1NC(=O)c1cc(Cn2nnc(C(F)(F)F)n2)nn1-c1ncccc1Br [(I-1-62)],95
4,Cc1cc(C#N)cc(C(=O)NC(C)(C)C)c1NC(=O)c1cc(Cn2nnc(C(F)(F)F)n2)nn1-c1ncccc1Cl [(I-1-63)],100
5,CNC(=O)c1cc(Br)cc(C)c1NC(=O)c1cc(Cn2nnc(C(F)(F)F)n2)nn1-c1ncccc1Cl [(I-1-64)],100
6,Cc1cc(Br)cc(C(=O)NCC#N)c1NC(=O)c1cc(Cn2nnc(C(F)(F)F)n2)nn1-c1ncccc1Cl [(I-1-68)],100
7,CNC(=O)c1cc(I)cc(C)c1NC(=O)c1cc(Cn2nnc(C(F)(F)F)n2)nn1-c1ncccc1Cl [(I-1-69)],100

# Same assay, conditions: Helicoverpa armigera, soil, 168 h, 1 mg of ai/plant, mortality 7 days after infestation, read-out: % Activity (according to Abbott)
row,SMILES,pest or weed control at 1 mg/plant [%]
1,Cc1cc(C#N)cc(C(=O)NC(C)(C)C)c1NC(=O)c1cc(Cn2nnc(C(F)(F)F)n2)nn1-c1ncccc1Br [(I-1-65)],100
2,CNC(=O)c1cc(C#N)cc(C)c1NC(=O)c1cc(Cn2nnc(C(F)(F)F)n2)nn1-c1c(F)cccc1Cl [(I-1-66)],100
3,Cc1cc(C#N)cc(C(=O)NC(C)C)c1NC(=O)c1cc(Cn2nnc(C(F)(F)F)n2)nn1-c1ncccc1Br [(I-1-67)],100
4,Cc1cc(C#N)cc(C(=O)NC(C)(C)C)c1NC(=O)c1cc(Cn2nnc(C(F)(F)F)n2)nn1-c1ncccc1F [(I-1-70)],95

# System: Diabrotica balteata
# Assay: Diabrotica balteata test on maize; drench application
# Format: in vivo
# Conditions: soil, 192 h, mortality 8 days after treatment, mixtures about 95%/5%, read-out: % Activity (according to Abbott)
# Description: Diabrotica balteata Test on Maize; Drench Application • Solvent: 7 parts by weight of dimethylformamide • Emulsifier: 1 part by weight of alkylaryl polyglycol ether To produce a suitable preparation of active compound, 1 part by weight of active compound is mixed with the stated amounts of solvent and emulsifier, and the concentrate is diluted with water to the desired concentration. Maize plants (Zea mays) are watered with the solution of the product in question and infested with larvae of the banded cucumber beetle (Diabrotica baltenta). After 8 days, the activity in % is determined. 100% means that all caterpillars have been killed; 0% means that none of the caterpillars have been killed.
row,SMILES,inhibition at 20 ppm [%]
1,CNC(=O)c1cc(C#N)cc(C)c1NC(=O)c1cc(Cn2nnc(C(F)(F)F)n2)nn1-c1ncccc1Cl [(I-1-1)],100
2,CNC(=O)c1cc(C#N)cc(C)c1NC(=O)c1cc(Cn2nnc(C(F)(F)F)n2)nn1-c1ncccc1Br [(I-1-62)],100
3,CNC(=O)c1cc(C#N)cc(C)c1NC(=O)c1cc(Cn2nnc(C(F)(F)F)n2)nn1-c1c(F)cccc1Cl [(I-1-66)],90
4,Cc1cc(Br)cc(C(=O)NCC#N)c1NC(=O)c1cc(Cn2nnc(C(F)(F)F)n2)nn1-c1ncccc1Cl [(I-1-68)],100
5,CNC(=O)c1cc(I)cc(C)c1NC(=O)c1cc(Cn2nnc(C(F)(F)F)n2)nn1-c1ncccc1Cl [(I-1-69)],100

# System: Myzus persicae
# Assay: Myzus persicae test on Savoy cabbage; drench application
# Format: in vivo
# Conditions: soil, 240 h, mortality 10 days after treatment, mixtures about 85%/15% and 84%/15%, read-out: % Activity (according to Abbott)
# Description: Myzus persicae Test on Savoy Cabbage; Drench Application • Solvent: 7 parts by weight of dimethylformamide • Emulsifier: part by weight of alkylaryl polyglycol ether To produce a suitable preparation of active compound, 1 part by weight of active compound is mixed with the stated amounts of solvent and emulsifier, and the concentrate is diluted with water to the desired concentration. Savoy cabbage (Brassica oleracea) heavily infested by the green peach aphid (Myzus persicae) is watered with a solution of the product of the desired concentration. After 10 days, the activity in % is determined. 100% means that all of the aphids have been killed: 0% means that none of the aphids have been killed.
row,SMILES,inhibition at 20 ppm [%]
1,CCNC(=O)c1cc(C#N)cc(C)c1NC(=O)c1cc(Cn2nnc(C(F)(F)F)n2)nn1-c1ncccc1Cl [(I-1-3)],90
2,CNC(=O)c1cc(C#N)cc(C)c1NC(=O)c1cc(Cn2nnc(C(F)(F)F)n2)nn1-c1ncccc1Br [(I-1-62)],80
3,CNC(=O)c1cc(C#N)cc(C)c1NC(=O)c1cc(Cn2nnc(C(F)(F)F)n2)nn1-c1c(F)cccc1Cl [(I-1-66)],90

# System: Plutella xylostella
# Assay: Plutella xylostella test on Savoy cabbage; drench application
# Format: in vivo
# Conditions: soil, 168 h, 0.5 mg of ai/plant, mortality 7 days after infestation, read-out: % Activity (according to Abbott)
# Description: Plutella xylostella test on Savoy Cabbage; Drench Application
# as §1
# as §2, with “Savoy cabbage (Brassica oleracea) is” for “Cotton plants (Gossypium hirsuium) are”, “60” for “50”, “diamondback moth (Plutella xylostella).” for “cotton bollworm (Heliothis armigera).”
row,SMILES,pest or weed control at 0.5 mg/plant [%]
1,CCNC(=O)c1cc(C#N)cc(C)c1NC(=O)c1cc(Cn2nnc(C(F)(F)F)n2)nn1-c1ncccc1Cl [(I-1-3)],100
2,CNC(=O)c1cc(F)cc(C)c1NC(=O)c1cc(Cn2nnc(C(F)(F)F)n2)nn1-c1ncccc1Cl [(I-1-61)],100
3,CNC(=O)c1cc(C#N)cc(C)c1NC(=O)c1cc(Cn2nnc(C(F)(F)F)n2)nn1-c1ncccc1Br [(I-1-62)],100
4,Cc1cc(C#N)cc(C(=O)NC(C)(C)C)c1NC(=O)c1cc(Cn2nnc(C(F)(F)F)n2)nn1-c1ncccc1Cl [(I-1-63)],100
5,CNC(=O)c1cc(Br)cc(C)c1NC(=O)c1cc(Cn2nnc(C(F)(F)F)n2)nn1-c1ncccc1Cl [(I-1-64)],100
6,Cc1cc(Br)cc(C(=O)NCC#N)c1NC(=O)c1cc(Cn2nnc(C(F)(F)F)n2)nn1-c1ncccc1Cl [(I-1-68)],100
7,CNC(=O)c1cc(I)cc(C)c1NC(=O)c1cc(Cn2nnc(C(F)(F)F)n2)nn1-c1ncccc1Cl [(I-1-69)],100
8,Cc1cc(C#N)cc(C(=O)NC(C)(C)C)c1NC(=O)c1cc(Cn2nnc(C3CC3)n2)nn1-c1ncccc1Cl [(I-1-71)],90

# Same assay, conditions: soil, 168 h, 1 mg of ai/plant, mortality 7 days after infestation, read-out: % Activity (according to Abbott)
row,SMILES,pest or weed control at 1 mg/plant [%]
1,Cc1cc(C#N)cc(C(=O)NC(C)(C)C)c1NC(=O)c1cc(Cn2nnc(C(F)(F)F)n2)nn1-c1ncccc1Br [(I-1-65)],100
2,CNC(=O)c1cc(C#N)cc(C)c1NC(=O)c1cc(Cn2nnc(C(F)(F)F)n2)nn1-c1c(F)cccc1Cl [(I-1-66)],90
3,Cc1cc(C#N)cc(C(=O)NC(C)C)c1NC(=O)c1cc(Cn2nnc(C(F)(F)F)n2)nn1-c1ncccc1Br [(I-1-67)],100
4,Cc1cc(C#N)cc(C(=O)NC(C)(C)C)c1NC(=O)c1cc(Cn2nnc(C(F)(F)F)n2)nn1-c1ncccc1F [(I-1-70)],100

# System: Spodoptera frugiperda
# Assay: Spodoptera frugiperda test on maize; drench application (Example B-1)
# Format: in vivo
# Conditions: soil, 336 h, mortality 14 days after treatment, read-out: % Activity (according to Abbott)
# Description: Spodoptera fugiperda Test on Maize; […] Application • Solvent: 7 parts by weight of dimethylformamide • Emulsifier: 1 part by weight of alkylaryl polyglycol ether To produce a suitable preparation of active compound, 1 part by weight of active compound is mixed with the stated amounts of solvent and emulsifier, and the concentrate is diluted with water to the desired concentration. Maize plants (Zea mays) are watered with a solution of the product in question and infested with the armyworm (Spadoptera frugiperda). After 14 days, the activity in % is determined. 100% means that all caterpillars have been killed; 0% means that none of the caterpillars have been killed.
row,SMILES,inhibition at 20 ppm [%]
1,CNC(=O)c1cc(C#N)cc(C)c1NC(=O)c1cc(Cn2nnc(C(F)(F)F)n2)nn1-c1ncccc1Cl [(I-1-1)],100
2,Cc1cc(C#N)cc(C(=O)NC(C)(C)C)c1NC(=O)c1cc(Cn2nnc(C(F)(F)F)n2)nn1-c1ncccc1Cl [(I-1-2)],100
